“Also recorded” adds a separate entry of the source.
Experiments:
MC3T3-E1 cells = test: Quantification of mineralization (Alizarin Red) in MC3T3-E1 cells; format: cell-based, mouse; conditions: PEP12 at 300 and 1000 ng/ml; 21 days; absorbance 405 nm
Procedure: Each time point was processed in three technical replicates. The medium was changed every two days.
Cells were washed with PBS and fixed with 95% ice-cold ethanol for 30 min at 4° C. for staining. After washing with distilled water, cells were stained with Alizarin Red staining (1% Alizarin Red S (Sigma)), washed three times with distilled water to remove unbound staining and air-dried. Quantification of the staining was performed by dissolving the mineral content in 800 μl of 10% acetic acid for 30 minutes. Then, the wells were scraped, the content of each well was harvested in a separate tube and vortexed for 30 seconds. Each tube was heated at 85° C. for 10 minutes, then put on ice for 5 minutes. Finally, tubes were centriguated at 13000 rpm for 15 minutes, the liquid phase was harvested and mixed with 100 μl of 10% ammonium hydroxide. Absorbance was measured at 405 nm with a spectrophotometer (Varioskan Flash, Thermo Fisher Scientific).
The mineralization level was evaluated by a biochemical assay as previously described after 21 days of differentiation culture. Results are representative of 3 experiments.

alkaline phosphatase = conditions: 300 ng/ml, 1000 ng/ml; day 1 and day 21; vs CTL
Procedure: MC3T3-E1 cells were differentiated during 21 days as mentioned previously. […] Treated cells were compared to cells without any peptide stimulation (CTL).
We also assessed the specific alkaline phosphatase activity (μmol de para-nitrophenol/min/mg of protein). To that goal, we lysed the cells using 300 μL of a buffer containing 0.2 M Tris-Base, 1.6 mM MgCl2 pH 8.1 and 1% Triton X-100. Samples were then placed into tubes and put on ice for 30 min. During this time, we alternated periods of 30 sec vortex and 5 min on ice. Then, samples were sonicated, and centrifugated for 15 min at 13 000 g, 4° C. Supernatant was collected, and total protein concentration was evaluated using bicinchoninic acid assay.
Alkaline phosphatase activity was measured by placing the harvested supernatants in para-nitrophenyl phosphate (pNPP) solution. The alkaline phosphatase will cleave this substrate and generate para-nitrophenol (pNP).
A solution of 4 mg/mL of pNPP is prepared in buffer A (0.1 M glycine pH 10.5, 0.11% (m/v) Zinc acetate and 0.011% magnesium chloride (m/v)). […]
Absorbance is read at 410 nm on a Varioskan Flash apparatus. Alkaline phosphatase activity is calculated based on the standard curve (equation A410=a×quantity(ρNP)+b) with the following formula: activity=((A(410 nm)−b)×reaction volume)/(a×sample volume×reaction time)

ATDC5 micromasses [1] = test: qRT-PCR relative expression of genes of interest in ATDC5 micromass culture (chondrogenesis); format: cell-based, mouse; conditions: for MMP3 expression / YAP/TAZ target genes (CTGF) expression / articular chondrocyte extracellular matrix genes (type II collagen and aggrecan) expression: 300 ng/ml, differentiated 14 days with ITS, D14 vs CTL
Procedure: (§1) Mouse chondrogenic ATDC5 cells (cartilage-specific chondrogenic strain) were cultured until confluent in maintenance medium containing 1:1 Dulbecco's modified Eagle's medium (DMEM): Ham's F-12 mix (Gibco) supplemented with 1% antibiotic (AB, Penicillin-Streptomycin, Gibco), 5% fetal bovine serum (FBS) (Gibco) and enriched with […] human transferrin (Sigma) and 30 nM sodium selenite (Sigma). Cells were trypsinized, washed and resuspended at 2.10^7 cells/mL in a chondrogenic medium made of maintenance medium enriched by 1× of ITS premix (resulting in 10 μg/mL insulin, 10 μg/mL human transferrin and 30 nM sodium selenite) (Life technologies). One droplet of cell suspension (10 μL) was placed at the center of each well of a 24-well plate. Cells were allowed to adhere for 2 h at 37° C., followed by addition of 500 μL chondrogenic medium supplemented. […] After 14 days, induction of hypertrophic differentiation and mineralization was induced by the mineralization medium made of α-MEM medium (Gibco) containing 1% AB, 5% FBS, 5 μg/ml human transferrin, 1× of ITS premix, 50 μg/ml ascorbic acid-2-phosphate (AA) (Sigma) and 10 mM β-glycerophosphate (BGP) (Sigma). […] Micromasses were collected at time points 1, 7, 14 21 and 28 days. Each time point was processed in three technical replicates. The medium was changed every other day. […] The genes of interest were articular chondrocyte markers (aggrecan, type 2 collagen (col2a1)), YAP/TAZ target genes (ctgf, ankrd) and pro-catabolic enzymes involved in the pathophysiology of OA (mmp3, mmp13).
(§2) Total RNA was isolated using the Nucleospin RNA II kit (Macherey-Nagel) and reverse-transcribed using the MMLV reverse transcriptase (Thermo Fisher Scientific) following the manufacturers' instructions. The iTaq SYBR green qPCR master mix (BioRad) was used to assess the mRNA expression of target genes of interest. Primer sequences can be provided upon request. The following PCR conditions were used: 1 minute at 95° C., 40 cycles of 15 sec of denaturation at 95° C., followed by 1 minute of annealing-elongation at 60° C. Melting curve analysis was performed to determine the amplification of the specific product. Results were expressed using the comparative threshold method and were normalized to housekeeping gene PPIA (Peptidylprolyl Isomerase A) mRNA level for ATDC5 cells and MACs, or normalized to housekeeping gene S29 (ribosomal protein S29) mRNA level for MC3T3-E1 cells. The Via7 real-time PCR system (Thermo Fisher Scientific) was used for qRT-PCR measurements.
(§3) ATDC5 cells were cultured as micromasses and differentiated during 14 days using ITS as mentioned previously. […] RNA was isolated and qPCR were performed for different target genes, i.e. type II collagen and aggrecan (articular chondrocyte extracellular matrix), CTGF (YAP/TAZ target genes, indicators of the pathway activity) and MMP3 (cartilage degrading enzyme increased during osteoarthritis) (FIG. 15). Alcian blue staining was performed on the micromasses cultures, and biochemical quantitation was performed as previously described (FIG. 16).
as §3, with “gene, indicator” for “genes, indicators”, “17).” for “15).”, “18).” for “16).”

ATDC5 micromasses [2] = test: Glycosaminoglycan/proteoglycan quantification (Alcian blue staining) in ATDC5 micromasses; format: cell-based, mouse; conditions: for proteoglycans deposition in the extracellular matrix (Alcian blue, absorbance 650 nm): 300 ng/ml, 14 days, vs control cells
Procedure: as §1
Micromasses were washed with PBS and fixed with 95% ice-cold ethanol for 30 min at 4° C. for staining. After washing with distilled water, micromasses were stained with Alcian Blue (0.1% Alcian Blue 8GX, (Sigma)), washed three times with distilled water to remove unbound staining and air-dried.

Wnt/β-catenin pathway = test: Western blot of Wnt/β-catenin pathway activation in ATDC5 micromasses; format: cell-based, mouse; conditions: 300 ng/mL; day 21 and 28
Procedure: (§4) Mouse chondrogenic ATDC5 cells (cartilage-specific chondrogenic strain) were cultured until confluent in maintenance medium containing 1:1 Dulbecco's modified Eagle's medium (DMEM): Ham's F-12 mix (Gibco) supplemented with 1% antibiotic (AB, Penicillin-Streptomycin, Gibco), 5% fetal bovine serum (FBS) (Gibco) and enriched with […] human transferrin (Sigma) and 30 nM sodium selenite (Sigma). Cells were trypsinized, washed and resuspended at 2.10^7 cells/mL in a chondrogenic medium made of maintenance medium enriched by 1× of ITS premix (resulting in 10 μg/mL insulin, 10 μg/mL human transferrin and 30 nM sodium selenite) (Life technologies). One droplet of cell suspension (10 μL) was placed at the center of each well of a 24-well plate. Cells were allowed to adhere for 2 h at 37° C., followed by addition of 500 μL chondrogenic medium supplemented. […] After 14 days, induction of hypertrophic differentiation and mineralization was induced by the mineralization medium made of α-MEM medium (Gibco) containing 1% AB, 5% FBS, 5 μg/ml human transferrin, 1× of ITS premix, 50 μg/ml ascorbic acid-2-phosphate (AA) (Sigma) and 10 mM β-glycerophosphate (BGP) (Sigma). […] Micromasses were collected at time points 1, 7, 14 21 and 28 days. Each time point was processed in three technical replicates. The medium was changed every other day. […]

CamKII pathway = test: Western blot of CamKII pathway activation in ATDC5 micromasses; format: cell-based, mouse; conditions: 300 ng/mL; day 21 and 28
Procedure: as §4

[3] = tested on: 7×TCF/LEF response elements (Super 8×TOPFlash reporter); test: Promoter activation assay, Super 8×TOPFlash luciferase reporter in ATDC5 cells stimulated with Wnt3a; format: cell-based, mouse; conditions: peptide at 300 ng/ml; 10 or 100 ng/mL recombinant Wnt3a; 24 h
Procedure: Results were normalized by-cotransfecting each of the above plasmid with the tyrosine kinase-renilla luciferase plasmid (Promega). Transfections were carried out using the Dharmafect kb transfection reagent (Fisher Scientific). Briefly, reporter plasmids and transfection reagent were diluted in serum-free medium, and then the diluted Dharmafect kb was added to the plasmids for an incubation time of 10 minutes at room temperature. During that time, cells were rinsed with PBS and were placed in fresh maintenance medium. When incubation was over, the mixture of transfection reagent-plasmids was dispensed in each well. Stimulations (with Wnt3a and/or PEP16 and/or PEP16bis) were carried out the next day.

[4] = tested on: mouse articular chondrocytes; test: qRT-PCR relative expression of genes of interest in mouse articular chondrocytes; format: cell-based; conditions: 300 ng/mL; 12 h of stimulation
Procedure: Mouse articular chondrocyte (MACs) were isolated from femoral heads by enzymatic digestion of whole femoral head caps. Samples were washed three times in 1% AB/phosphate buffered saline (PBS) and incubated with 2 mg/ml pronase (Roche)/DMEM-F12 at 37° C. for 1 h at slow rotation 100 rpm followed by a 3 h incubation with 1.5 mg/ml collagenase B (Roche)/DMEM-F12 at 37° C. Cells were seeded at 1×10^6 cells/[…], and cultured for 7 to 14 days in growth medium DMEM-F12, containing 1% AB (Gibco), 10% FBS (Gibco) and 5% L-glutamine (Thermoscientific). Passage 1 cells were utilized for the experiments. The culture supernatants were then harvested in order to perform MMP13 enzymatic activity assay. The evaluation of the expression of genes of interest included articular chondrocyte markers (aggrecan, type 2 collagen (col2a1)), YAP/TAZ target genes (ankrd) and pro-catabolic enzyme involved in the pathophysiology of OA (mmp3).
as §2

mouse model of OA = mouse model of OA (Zhang et al., 2020); cited from earlier work
[5] = 300 ng/mL, day 1, 21, 28, vs non-treated control

ATQKTYFRNNYN (PEP12)
extracellular matrix mineralization (biochemical quantitation) (MC3T3-E1 cells): not able to increase extracellular matrix mineralization | specific alkaline phosphatase activity (alkaline phosphatase): not able to increase the alkaline phosphatase activity

DRAGKKVKRWDMKARH (PEP16bis) [mutant of PEP16, L in position 3 and 14 changed to A]
expression of Ctgf, a target gene of the Hippo/YAP/TAZ pathway (ATDC5 micromasses [1]; [5]): efficiently reduced the expression | relative expression level of aggrecan (ATDC5 micromasses [1]; [5]): favoured the induction of the expression | relative expression level of col2a1 (type 2 collagen) (ATDC5 micromasses [1]; [5]): favoured the induction of the expression | relative expression level of mmp3 (ATDC5 micromasses [1]; [5]): efficiently reduced the expression | relative expression level of mmp13 (ATDC5 micromasses [1]; [5]): efficiently reduced the expression | glycosaminoglycans quantification (accumulation in the extracellular matrix) (ATDC5 micromasses [2]; 300 ng/mL, Alcian blue at day 28, absorbance 650 nm): significantly increased the accumulation of glycosaminoglycans | Wnt/β-catenin pathway activation (active protein form over total protein form) (Wnt/β-catenin pathway): reduced in the activation of the Wnt/β-catenin pathway | CamKII pathway activation (P-CamKII over total) (CamKII pathway): increased the activation of the CamKII pathway | activity of the canonical Wnt pathway in the Super TOPFlash luciferase reporter system (Firefly/renilla ratio) [3]: very similar properties (biological activity) to the initial sequence PEP16; also recorded: significantly reduce the activity | expression of Ankrd, a target gene of the Hippo/YAP/TAZ pathway [4]: capable of reducing the expression

DRIGKKVKRWDMKIRH (PEP i) [PEP16 where L in position 3 and 14 were changed to an Isoleucine]
MMP3 expression (ATDC5 micromasses [1]): significant decrease | YAP/TAZ target genes (CTGF) expression (ATDC5 micromasses [1]): significant decrease | articular chondrocyte extracellular matrix genes (type II collagen and aggrecan) expression (ATDC5 micromasses [1]): significant increase | proteoglycans deposition in the extracellular matrix (Alcian blue, absorbance 650 nm) (ATDC5 micromasses [2]): significantly increase the proteoglycans deposition

DRSGKKVKRWDMKSRH (PEP s) [PEP16 where L in position 3 and 14 were changed to a Serine]
MMP3 expression (ATDC5 micromasses [1]): significant decrease | YAP/TAZ target genes (CTGF) expression (ATDC5 micromasses [1]): significant decrease | articular chondrocyte extracellular matrix genes (type II collagen and aggrecan) expression (ATDC5 micromasses [1]): significant increase | proteoglycans deposition in the extracellular matrix (Alcian blue, absorbance 650 nm) (ATDC5 micromasses [2]): significantly increase the proteoglycans deposition

Verteporfin
cartilage homeostasis (mouse model of OA): allowed preserving the cartilage homeostasis

— patent publication US20230183303A1, “Therapeutic Potential of Peptides from the "Netrin-Like" Domain of the FRZB Protein” (Université de Lorraine, priority 2020, published 2023)
